In PubChem BioAssay (NCI):
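A five-concentration, 48-hour dose response in 96-well plates underlies each endpoint, interpolated linearly between surrounding concentrations. The concentration for full growth arrest is given as TGI.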

Columns and labels:
Assay in all cases: inhibition of tumour cell growth, NCI panel, 48 h
[1] = tested on: SN12C renal
[2] = tested on: UO-31 renal
[3] = tested on: ACHN renal
[4] = tested on: HCC-2998 colon
[5] = tested on: HCT-116 colon
[6] = tested on: A498 renal
[7] = tested on: SW-620 colon
[8] = tested on: M14 melanoma
[9] = tested on: MDA-MB-231 breast
[10] = tested on: EKVX NSCLC
[11] = tested on: OVCAR-5 ovarian
[12] = tested on: SF-268 CNS
[13] = tested on: BT-549 breast
[14] = tested on: 786-0 renal
[15] = tested on: CCRF-CEM leukemia
[16] = tested on: NCI/ADR-RES ovarian
[17] = tested on: U251 CNS
[18] = tested on: MDA-N
[19] = tested on: RPMI-8226 leukemia
[20] = tested on: TK-10 renal
[21] = tested on: SF-295 CNS
[22] = tested on: UACC-62 melanoma
[23] = tested on: HCT-15 colon
[24] = tested on: SR leukemia
[25] = tested on: MDA-MB-435
[26] = tested on: MOLT-4 leukemia
[27] = tested on: PC-3 prostate
[28] = tested on: DU-145 prostate
[29] = tested on: T-47D breast
[30] = tested on: SF-539 CNS
[31] = tested on: NCI-H23 lung
[32] = tested on: A549 NSCLC
[33] = tested on: OVCAR-4 ovarian
[34] = tested on: CAKI-1 renal
[35] = tested on: HT29 colon
[36] = tested on: UACC-257 melanoma
[37] = tested on: HOP-92 NSCLC
[38] = tested on: LOX IMVI melanoma
[39] = tested on: SK-OV-3 ovarian
[40] = tested on: OVCAR-3 ovarian
[41] = tested on: OVCAR-8 ovarian
[42] = tested on: SNB-75 CNS
[43] = tested on: MALME-3M melanoma
[44] = tested on: NCI-H522 lung
[45] = tested on: K-562 leukemia
[46] = tested on: SK-MEL-5 melanoma
[47] = tested on: KM12 colon
[48] = tested on: NCI-H226 lung
[49] = tested on: HOP-62 NSCLC
[50] = tested on: COLO 205 colon
[51] = tested on: IGROV1 ovarian
[52] = tested on: MCF7 breast
[53] = tested on: SK-MEL-2 melanoma
[54] = tested on: HL-60(TB) leukemia
[55] = tested on: RXF 393 renal
[56] = tested on: SK-MEL-28 melanoma
[57] = tested on: NCI-H460 lung
[58] = tested on: SNB-19 CNS

Measured: TGI

COc1ccc2c(c1)C1Oc3ccccc3CC1(O)CO2 (configuration not stated)
not listed: [54] | [55] | [56] | [57] | [58]
> 100 µM: all other assays above

NNC(=Nc1ccccc1)SCc1ccccc1
not listed: [10] | [12] | [20] | [29]
> 100 µM: all other assays above
